Assay [1] addresses trypsin-like F. oxysporum protease (Fusarium oxysporum, UniProt P35049). The note with it: 2M NaCl; FIG. 11.
The test system of the next assay is bacterial thermolysins. The note with it: 1M NaCl.
In assay [2] the target is T1, p45 Metalloprotease (Fusarium oxysporum, UniProt M1UZ70). To be noted: 1M NaCl; FIG. 11.
Assay [3] deals with T1, p45 Metalloprotease. Briefly: Influence of heavy metal additions on p45 metalloprotease activity (FTC-casein). Format: biochemical. More on the design: precursor 632 aa (18 signal, 226 pro); native or A. oryzae-expressed with same N-terminus. The note with it: CoCl2 0-4 mM, p45 0.9 ug. Here is the method:
Samples are incubated at room temperature for 30 minutes.
It is interesting that substoichiometric levels of Zn are found after metal analysis (ICP) of the p45 metalloprotease. It appears that zinc levels are only 5% of that expected based on the level of p45 metalloprotease in the sample. No other heavy metal (i.e. Cd, Cr, Co, Cu, Mo, Ni, Li, […], Fe, Mn, As, Pb, or Se) is present in the p45 maturase sample.

Assay [4] has as its target T1, p45 Metalloprotease. Briefly: Inhibitor analysis of the p45 metalloprotease. Format: biochemical. On the set-up: precursor 632 aa (18 signal, 226 pro); native or A. oryzae-expressed with same N-terminus. Here is the method: (§1) Other metalloprotease inhibitors are utilized to further differentiate the p45 metalloprotease from the Bacillus thermolysins. Inhibition constants for 1,10-phenanthroline, phosphoramidon, and CdCl2 are determined to be 130 uM, 1 uM, and 67 uM against the p45 Metalloprotease (Table 3). Inhibition constants for 1,10-phenanthroline, phosphoramidon, and CdCl2 are 85 uM, 26 uM, and 2 uM against the Bacillus stearothermophilus thermolysin. […] It is of interest to note that phophoramidon is an effective inhibitor of many bacterial metallo-endopeptidases but few of mammalian origin. Also, it is interesting that CdCl2 is found to be such an effective inhibitor of metalloproteases. No evidence of CdCl2 inhibition of metalloproteases has been found in the literature.

In assay [5] the target is T1, p45 Metalloprotease. Briefly: Effect of the pentapeptide on processing of pro-trypsin-like protease by p45. Format: biochemical. To be noted: 45-minute pre-incubation at room temperature. More on the design: precursor 632 aa (18 signal, 226 pro); native or A. oryzae-expressed with same N-terminus. Here is the method: After a 45-minute pre-incubation at room temperature with gentle shaking, the mixtures are diluted 500-fold and assayed for trypsin-like F. oxysporum protease activity.

The target in assay [6] is Bacillus stearothermophilus thermolysin. Briefly: Inhibitor analysis of B.s. thermolysin. Format: biochemical. The note with it: for Ki: read-out: Inhibition Constant (Ki), B.s. Thermolysin. The procedure:
as §1

Assay [7] deals with neutral metalloprotease from Bacillus stearothermophilus (Bacillus stearothermophilus). Briefly: enzyme inhibition, kinetic analysis of B.s. thermolysin activity.
Assay [8] concerns the target T2, trypsin-like Fusarium oxysporum protease (Fusarium oxysporum, UniProt P35049).
T2 construct: the metalloprotease cleaves recombinant pro-trypsin-like Fusarium oxysporum protease disclosed, supra to yield the active tryptic protease; made in house; host or cells: Aspergillus oryzae (IFO 4177), plasmid pSX183
Briefly: Effect of 1,10-phenanthroline on tryptic activity (L-BAPNA). Format: biochemical. To be noted: 1,10-phenanthroline 1 mM. The procedure:
(§2) Metalloprotease activity is measured as released trypsin activity from pro-trypsin-like Fusarium oxysporum protease deposited at the Deutsche Sammlung von Mikroorganismen, Gottingen, Germany under the number DSM 2672, after a 30-60 min pre-incubation at 25° C. in 0.1M Tris, 2 mM CaCl2, pH 7 (at lower pH, 100 mM borate, 10 mM DMG, 2 mM CaCl2 is used).
(§3) However, when combined the metalloprotease cleaves recombinant pro-trypsin-like Fusarium oxysporum protease disclosed, supra to yield the active tryptic protease. Metalloprotease activity is halted upon the addition of 1 mM 1,10-phenanthroline (Table 1).

Assay [9] concerns Fusarium oxysporum metalloprotease. In words: Inhibition of Fusarium metalloprotease with 1,10-phenanthroline / EDTA and reactivation with Zn2+. Format: biochemical. The note with it: inhibitor 1 mM. Here is the method:
as §2
(§4) Metalloproteases contain a catalytic zinc metal center which participates in the hydrolysis of the peptide backbone. The active zinc center differentiates these proteases from calpains whose activities are dependent upon the presence of calcium. Confirmation of a protease as a metallo-protease is loss of proteolytic activity accomplished by removal of the zinc center with 1,10-phenanthroline (1 mM) followed by titration with Zn^2+ (0.1-100 μM) to restore full activity.
as §3

Assay [10] addresses T3, p45 metalloprotease from Fusarium oxysporum (Fusarium oxysporum).
T3 chain: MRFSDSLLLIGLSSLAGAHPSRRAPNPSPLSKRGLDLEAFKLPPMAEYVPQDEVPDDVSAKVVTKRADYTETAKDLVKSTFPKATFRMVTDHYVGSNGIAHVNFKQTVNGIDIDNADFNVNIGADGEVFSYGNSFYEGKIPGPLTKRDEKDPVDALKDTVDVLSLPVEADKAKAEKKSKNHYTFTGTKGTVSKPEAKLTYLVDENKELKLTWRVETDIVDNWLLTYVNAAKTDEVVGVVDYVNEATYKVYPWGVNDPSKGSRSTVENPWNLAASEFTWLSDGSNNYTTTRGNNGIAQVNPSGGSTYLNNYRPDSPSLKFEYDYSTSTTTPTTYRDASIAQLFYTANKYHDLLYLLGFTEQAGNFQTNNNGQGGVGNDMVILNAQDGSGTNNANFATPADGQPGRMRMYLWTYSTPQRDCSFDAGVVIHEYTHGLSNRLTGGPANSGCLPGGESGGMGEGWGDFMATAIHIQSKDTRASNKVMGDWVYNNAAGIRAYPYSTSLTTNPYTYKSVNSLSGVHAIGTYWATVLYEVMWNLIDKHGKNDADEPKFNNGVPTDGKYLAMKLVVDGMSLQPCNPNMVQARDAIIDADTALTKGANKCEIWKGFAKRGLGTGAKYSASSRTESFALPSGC
In words: enzyme inhibition, kinetic analysis of p45 activity.

Assay [11] relates to pro-trypsin-like Fusarium oxysporum protease. Briefly: Proteolytic enzyme assay: tryptic activity released from pro-trypsin-like protease, L-BAPNA, 405 nm. Format: biochemical. The procedure:
as §2, §4, §3

The subject of assay [12] is FTC-labeled casein. In words: pH profile, FTC-casein hydrolysis. Format: biochemical. Here is the method: Purified p45 metalloprotease (10 microliters, 0.005 mg/ml) is added to 30 microliters of Universal pH buffer (pH 5-11.5), and 20 microliters of FTC-labeled casein are incubated at 37° C. for 1-hour. 150 microliters of 5% TCA is added to acidify and precipitate casein (1-hour at room temperature). […] Samples are then analyzed on the fluorimeter (slit width=2.5 nm; excitation freq.=490 nm; emission freq.=525 nm; integration time=2 sec).

The target of assay [13] is FTC-labeled casein. The note with it: scale: fold.

Where two headings read alike, the source gives them in different places. Square brackets hold non-standard residues; d marks the D form. Peptide text beside a SMILES is read from it. pGlu = O=C1CC[C@@H](C(=O)O)N1

Protocol for bacterial thermolysins: FTC-casein (20 microliters, 0.5% w/w in 50 mM Tris-Cl, pH 7.2), NaCl (0-2M) in trypsin-like F. oxysporum protease sample buffer, and either trypsin-like F. oxysporum protease (10 microliters, 1.8 ug) or p45 metalloprotease (10 microliters, 0.33 ug) are added to trypsin-like F. oxysporum protease sample buffer to a total volume of 50 microliters. Samples are incubated at room temperature for 30 minutes. At the end of the incubation, 150 microliters of 5% (w/v) trichloroacetic acid is added and the samples are allowed to precipitate for 60 minutes at 4° C. Samples are subsequently centrifuged (14,000 rpm, 5 minutes) and 30 microliters of supernatant are added to 3 ml of 0.5M sodium borate, pH 9.
The fluorescence of the samples is measured (Perkin-Elmer fluorimeter) using a 2.5 nm slit width, excitation at 490 nm and emission detected at 525 nm.

For `[Cl-].[Na+]` [NaCl], the “inhibition of trypsin-like F. oxysporum protease activity” value in assay [1] was determined as 25%. Also, the “inhibition of bacterial thermolysins” value with bacterial thermolysins is reported as 38%. For the same molecule, the “inhibition of p45 metalloprotease activity” value against p45 Metalloprotease [2] is on record as 85%.

In the case of `[Cl-].[Cl-].[Co+2]` [CoCl2], the “enhancement of p45 metalloprotease activity” value at p45 Metalloprotease [3] was “no enhanced activity”.

The term Ki denotes a measure of affinity in units of concentration, obtained from inhibition or displacement. As to `CC[C@H](C)[C@H](NC(=O)[C@H](CCC(=O)O)NC(=O)[C@@H]1CCC(=O)N1)C(=O)N1CCC[C@H]1C(=O)N[C@@H](CC(N)=O)C(=O)O` [<E-E-I-P-N, pyroGlu-Glu-Ile-Pro-Asn-COOH] ([pGlu]EIPN-OH), the inhibition constant (Ki) (at p45 Metalloprotease [4]; in [6] (no effect)) was over 5000 µM in each case. Moreover, the “effect of the pentapeptide on p45 metalloprotease activity” value on p45 Metalloprotease [5] was “not an inhibitor of p45 metalloprotease activity”.

In [7], “synthetic pentapeptide pyroGlu-Glu-Ile-Pro-Asn-COOH” gave a Ki of over 5000 µM.

As to `c1cnc2c(c1)ccc1cccnc12` [1,10-phenanthroline], the “inhibition of trypsin-like protease” value in [8] is “not inhibited”. The “metalloprotease activity upon addition of the inhibitor” value in assay [9] is “halted”. The Ki was 130 µM at p45 Metalloprotease [4] and 85 µM in [6]. Moreover, the “type of inhibition, p45 Maturase” value on p45 Metalloprotease [4] (kinetic analysis) is reported as “Noncompetitive”. Besides, the “type of inhibition, B.s. Thermolysin” value in [6] (kinetic analysis) is recorded as “Noncompetitive”.

B1: synthetic pentapeptide pyroGlu-Glu-Ile-Pro-Asn-COOH (peptide)
peptide: [pGlu]EIPN-OH
SMILES: CC[C@H](C)[C@H](NC(=O)[C@H](CCC(=O)O)NC(=O)[C@@H]1CCC(=O)N1)C(=O)N1CCC[C@H]1C(=O)N[C@@H](CC(N)=O)C(=O)O
In turn, B1 displayed a Ki in [10] of over 5000 µM.

B2: trypsin-like Fusarium oxysporum protease (enzyme)
chain: IVGGTSASAGDFPFIVSISRNGGPWCGGSLLNANTVLTAAHCVSGYAQSGFQIRAGSLSRTSGGITSSLSSVRVHPSYSGNNNDLAILKLSTSIPSGGNIGYARLAASGSDPVAGSSATVAGWGATSEGGSSTPVNLLKVTVPIVSRATCRAQYGTSAITNQMFCAGVSSGGKDSCQGDSGGPIVDSSNTLIGAVSWGNGCARPNYSGVYASVGALRSFIDTYA
In the case of B2, the “Tryptic Activity” value in [11] (with 1,10-phenanthroline (1 mM), without Zn2+) is listed as 33.8 Δ Abs/min × 10^-4; in assay [11] (with inhibitor (1,10-phenanthroline) addition), 33.8×10^-4 ΔAbs/min; in [11] (without 1,10-phenanthroline, without Zn2+) it was 34.0 Δ Abs/min × 10^-4; in [11] (without inhibitor addition) it was 34.0×10^-4 ΔAbs/min. Moreover, the “pH at which the protease functions optimally” value in the assay with FTC-labeled casein [12] was about 9.5. For the same molecule, the hydrolysis of FTC-casein at pH 9 with FTC-labeled casein [13] turned out to be 16.
